Drawing on EP3556748A1, “HYDROXYPHENYL-TRIAZINE UV ABSORBERS” (BASF SE, priority 2018, dated 2019), this text covers Solubility for one compound.

A short description of this data set: Solubility testing in cosmetic solvents / emollients (clear solution). Particulars: 25°C. Type of data set: physicochemical. The protocol: The UV absorber mixture is suspended in 1200mg solvent in a glass container (sonication bath, vortex shaker). A magnetic stirring bar is added. The container is closed and stirred over night at room temperature (20-35°C).
Specification: clear solution
The solubility of Tinosorb S was determined as described in SOFW-Journal, 139, 7-2013, page 7-14.

Take `CCCCC(CC)COc1ccc(-c2nc(-c3ccc(OC)cc3)nc(-c3ccc(OCC(CC)CCCC)cc3O)n2)c(O)c1` (centres unmarked) [Tinosorb S, Bis-Ethylhexyloxyphenol Methoxyphenyl Triazine]: the Solubility by setting is: (Cetiol AB (C12-15 Alkyl Benzoate)) 10% w/w; (Cetiol B (Dibutyl Adipate)) 12% w/w; (Cetiol CC (Dicaprylyl Carbonate)) 9% w/w; (Cetiol Ultimate (Undecane and Tridecane)) 1% w/w; (Dub DBS (Dibutyl Sebacate)) 9% w/w; (Finsolv EB: Ethylhexyl Benzoate) 17% w/w. The Solubility was 5% w/w (Myritol 318 (Caprylic/Capric Triglyceride)) and 5% w/w (Myritol 331 (Cocoglycerides)).
